Data: patent US20040191311A1, “Use of methyltestosterone as a drug for treatment of human papilloma virus infections” (priority 2002, published 2004)
Entries after “also recorded” stand apart in the source; their conditions may differ.

What was measured:
[1] = test system: verruca planae caused by HPV; assay: Clinical treatment of verruca planae patients with methyltestosterone tablets; format: in vivo, human; details: for outcome at follow-up visit: 8 weeks later
[2] = test system: condyloma acuminatum caused by HPV; assay: Clinical treatment of condyloma acuminatum patients with methyltestosterone tablets after operation, laser or freezing; format: in vivo, human; details: for relapse of lesions: in 6 months
Procedure: The study protocol using methyltestosterone as a treatment for verruca planae and condyloma acuminatum caused by HPV includes:
Some of the patients were the relapsed ones after the treatment by transferor, interferon, and interleukins.
Methyltestosterone is a tablet, manufactured by Southwest Pharmaceutical Company and the Second Pharmaceutical Company of Chengdu, China. The dosage was 5 mg/tablet.
Methyltestosterone was administered orally, 1 tablet/time, three times/day, and 5 days consecutively, followed by 1 tablet/time, two times/day, for additional 5-10 days consecutively.
One of the following would be considered as cure: A) there were no new vegetations at or around the lesion for at least six months after administration of methyltestosterone for 10-15 days following treatment with physical, chemical, and operational therapies. B) the vegetations reappeared in two months after operations and were positive for the acetowhitening test, but regressed for at least 6 months after administration of methyltestosterone for 10-15 days.

[3] = of 96 cases with facial verruca planae
[4] = out of 7 cases with hand and neck verruca planae

CC12CCC(=O)C=C1CCC1C2CCC2(C)C1CCC2(C)O (stereo not drawn) [methyltestosterone]
time to cure ([1]; Case 1: facial verruca planae 2 years, 1 tablet twice daily for 3 days): 2 weeks
time until all lesions regressed ([1]; Case 2: facial verruca planae 1 year, 1 tablet twice daily for 3 days): 4 weeks
time until all lesions regressed ([1]; Case 3: facial verruca planae 4 years, 1 tablet twice daily for 3 days): 4 weeks
lesions regressed ([1]; Case 4: facial verruca planae 13 years, 1 tablet twice daily for 5 days, in 6 weeks): 90%
time until lesions on the face regressed ([1]; Case 5: hand and neck verruca planae 10 years, 1 tablet twice daily for 10 days): 2 months
time to cure ([1]; Case 6: facial verruca planae 3 months, 1 tablet once daily for 5 days plus Vitamin B2, Vitamin B6 and brimstone lotion): 4 weeks
outcome at follow-up visit ([1]; Case 7: facial verruca planae, 1 tablet twice daily for 5 days): cured
outcome at follow-up visit ([1]; Case 8: facial verruca planae one year, 1 tablet once daily for 5 days): cured
outcome of lesions ([1]; Case 9: facial verruca planae relapsed after laser, 1 tablet three times daily for 5 days): regressed mostly
time until papules regressed completely ([1]; Case 10: flat papules on forehead and blepharons, 1 tablet three times daily for 4 days): 3 weeks
non-responsive rate ([1]; facial verruca planae, 96 cases): 2%
cure rate ([1]; facial verruca planae, 96 cases, 5 mg tablet hypoglossally, two or three times/day, 3-5 days, cure = all facial exanthems regressed): 88.5%
effective rate ([1]; facial verruca planae, 96 cases, effective = 70% of exanthems disappeared): 9.4%
effective rate ([1]; hand and neck verruca planae, 7 cases): 86%
cases cured [1, 3]: 85 cases
cases effective [1, 3]: 9 cases
cases non-responsive to the medication [1, 3]: 2 cases
cases cured [1, 4]: 1 cases
cases regressed after 5 weeks following the treatment [1, 4]: 3 cases
cases remaining non-responsive [1, 4]: 1 cases
relapse of condyloma acuminatum ([2]; 61 patients, methyltestosterone 10-15 days following operations, follow-up 6 months to 1 year): None of the patients relapsed; also recorded: no relapse case; also recorded: no relapses occurred
relapse of lesions ([2]; Case 11: penis, laser, then 1 tablet three times daily 5 days and twice daily 5 days): did not relapse
relapse of lesions ([2]; Case 12: anus, CO2 laser, then 1 tablet three times daily 5 days and twice daily 10 days): did not relapse
new vegetations ([2]; Case 13: vulva and anus, CO2 laser, then 1 tablet three times daily 5 days and twice daily 5 days, in 4 weeks): no new vegetations appearing
relapse ([2]; Case 14: anus, CO2 laser, then 1 tablet twice daily for 10 days, in a year): No relapse occurred
outcome of wound and vegetations ([2]; Case 15: prepuce, CO2 laser, then 1 tablet three times daily for 10 days, wound healed in 4 weeks): no scars left nor new vegetations growing
time until wound healed with negative acetowhitening test ([2]; Case 16: after the methyltestosterone treatment): 6 weeks
relapse ([2]; Case 16: relapsed after freezing and interferon, CO2 laser, then 1 tablet three times daily 5 days and twice daily 10 days, in one year): no relapse occurred
evaluation by Chinese Ministry of Health and WHO criteria for condyloma acuminatum ([2]; all condyloma acuminatum cases): all cases are considered as cure
outcome of the two cases relapsed after operation and cytokine (interleukin II) treatment ([2]; two relapsed cases, then methyltestosterone treatment): cured; also recorded: healed the lesions
